Measured values: US12263248B2, “Compounds and compositions for intracellular delivery of therapeutic agents” (ModernaTX, Inc., priority 2018, dated 2025)

What was measured:
luciferase (Luc) mRNA [1] = assay: Luc expression in liver, lung, spleen and femur 6 hours after intravenous administration; format: in vivo; conditions: mice, 0.5 mpk; for Total Flux Femur / Total Flux Liver / Total Flux Lung / Total Flux Spleen: intravenous
Procedure, shortened: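 LNP-formulated mRNA given IV to mice (n=3) at 0.5 mpk; at 6 h, bioluminescence imaged ex vivo 15 min after IP D-luciferin (15 mg/mL, 200 μL), organs imaged within 25 min. Values are total flux by region of interest.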

[2] = Particle size and polydispersity index of nanoparticle compositions (Zetasizer Nano ZS); format: physicochemical
Procedure, shortened: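 Particle size and PDI were measured on a Zetasizer Nano ZS with the nanoparticle compositions dispersed in 1×PBS.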

luciferase (Luc) mRNA [3] = assay: Luc expression, whole body bioluminescence after intravenous administration to mice; format: in vivo; conditions: for Fold increase in total body Luc Flux relative to MC3 at 6 h: Table 3A, i.v. administration; for Total Flux 3 hours / Total Flux 6 hours / Total Flux 24 hours: Luc mRNA
Procedure, shortened: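 Luc mRNA nanoparticle formulations given intravenously to mice (n=6) at 0.5 mg/kg; whole-body bioluminescence imaged at 3, 6 and 24 h. CD-1 mice received IP D-luciferin (200 μL of 15 mg/mL) 15 min before imaging; total flux quantified by region of interest.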

[4] = Encapsulation efficiency of RNA (QUANT-IT RIBOGREEN RNA assay); format: physicochemical; conditions: for EE (%): Table 1A
Procedure, shortened: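 RiboGreen fluorescence (ex ~480, em ~520 nm) compared between intact samples and Triton X-100-lysed samples after 15 min at 37 °C in TE buffer, pH 7.5. Percent free RNA is the blank-corrected intact/disrupted ratio.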

IL-6, IP-10 = assay: Cytokine induction in mice upon intravenous administration; format: in vivo; design: Cytokine induction IL-6 / Cytokine induction IP-10: unit not given here; conditions: 0.5 mpk, 6 hours; for Cytokine induction IL-6 / Cytokine induction IP-10: intravenous
Procedure, shortened: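 Mice dosed intravenously with nanoparticle compositions at 0.5 mpk; serum cytokine concentrations (IL-6, IP-10) measured at 6 hours. MC3 formulation and PBS controls run alongside.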

[5] = Table 1A, lipid:DSPC:cholesterol:PEG-DMG 50:10:38.5:1.5 mol %
[6] = Table 1C, compositions for subcutaneous administration
[7] = lipid nanoparticle, ±SD within one assay run (Table 37)

Structure (SMILES) | Total Flux Femur (luciferase (Luc) mRNA [1]) | Total Flux Liver (luciferase (Luc) mRNA [1]) | Total Flux Lung (luciferase (Luc) mRNA [1]) | Total Flux Spleen (luciferase (Luc) mRNA [1]) | PDI ([2]; Table 1A) | Size (nm) [2, 5] | Fold increase in total body Luc Flux relative to MC3 at 6 h (luciferase (Luc) mRNA [3]) | Total Flux 3 hours (luciferase (Luc) mRNA [3]; mice, i.v., 0.5 mg/kg) | Total Flux 6 hours (luciferase (Luc) mRNA [3]; mice, i.v., 0.5 mg/kg) | Total Flux 24 hours (luciferase (Luc) mRNA [3]; mice, i.v., 0.5 mg/kg) | EE (%) [4] | Cytokine induction IL-6 (IL-6, IP-10) | Cytokine induction IP-10 (IL-6, IP-10) | also measured
CCCCCCCCCOC(=O)CCCCCCCN(CCCCO)CCCCCCCC(=O)OC(CCCCCCCC)CCCCCCCC [Compound 20, Heptadecan-9-yl 8-((4-hydroxybutyl)(8-(nonyloxy)-8-oxooctyl)amino) octanoate] | 1.31E+07 | 1.84E+09 | 2.66E+07 | 1.43E+08 | 0.13 | 86.7 nm | 0.80 | 1.71E+10 | 2.48E+10 | 5.40E+08 | 96.72% | 126.83 | 2468.24 | PDI [2, 6]: 0.13; Size (nm) [2, 6]: 86.7 nm; Fold increase in Luc expression relative to MC3, Intravenous (0.5 mpk dose) (luciferase (Luc) mRNA [3]; intravenous, 0.5 mpk): 0.80; % EE [4, 6]: 91.6%; IP-10 induction (IL-6, IP-10; i.v., in words): highest
CCCCCCCCC(CCCCCCCC)OC(=O)CCCCCCCN(CCO)CCCCCC [Compound 5, Heptadecan-9-yl 8-(hexyl(2-hydroxyethyl)amino)octanoate] | 1.22E+06 | 5.84E+07 | 1.89E+06 | 1.55E+08 | 0.21 | 196.4 nm | 0.005 | 2.77E+08 | 1.76E+08 | 2.40E+07 | 77.07% | 94.07 | 487.16 | 
CCCCC/C=C\C/C=C\CCCCCCCCN(CCO)CCCCCCCC(=O)OCCCCCCCCC [Compound 136, Nonyl 8-((2-hydroxyethyl)((9Z,12Z)-octadeca-9,12-dien-1-yl)amino)octanoate] | 6.60E+05 | 1.34E+08 | 8.91E+05 | 2.77E+07 | 0.5 | 140.4 nm |  | 7.21E+08 | 7.33E+08 | 3.39E+07 | 90.9% | 28.69 | 887.91 | PDI (Polydispersity index) [2, 7]: 0.11 ± 0.05; % Encapsulation [4, 7]: 90.9 ± 0.9%
CCCCCCCCC(CCCCCCCC)OC(=O)CCCCCCCN(CCO)CCCCCCCC(=O)OCC1CC1CCCCCC (stereo not drawn) [Compound 28, Heptadecan-9-yl 8-((8-((2-hexylcyclopropyl)methoxy)-8-oxooctyl)(2-hydroxyethyl)amino)octanoate] |  | 1.22E+10 | 2.17E+08 | 1.80E+08 | 0.20 | 99.4 nm | 2.46 | 8.98E+10 | 1.13E+11 | 1.20E+09 | 97.03% | 17.47 | 283.13 | Flux in the liver (luciferase (Luc) mRNA [1]; i.v., in words): highest; total flux at 3 hours (luciferase (Luc) mRNA [3]; mice, i.v., 0.5 mg/kg, comparison in words): highest; IL-6 induction (IL-6, IP-10; i.v., in words): lowest
